According to publication PMC5374441 (Scientific Reports, 2017):
Bridge positions count the residues as written; N and C are the ends. Peptide text beside a SMILES is read from it.

Molecular target: T1, Q55K Ls-AChBP mutant (Lymnaea stagnalis, UniProt P58154, Q74K)
T1 construct: made in house; Top10 E. coli is named only for plasmid propagation
Test: biochemical
Assay type: binding
Conditions: SEM

In the case of `CC[C@H](C)[C@@H]1NC(=O)[C@H](CC(N)=O)NC(=O)[C@@H]2CCCN2C(=O)[C@H](CC(N)=O)NC(=O)[C@H](CC(N)=O)NC(=O)[C@H](C(C)C)NC(=O)[C@H](CCCNC(=N)N)NC(=O)[C@@H]2CSSC[C@H](NC(=O)CNC(=O)[C@@H](N)CO)C(=O)N[C@@H](CSSC[C@@H](C(N)=O)NC1=O)C(=O)N[C@@H](CO)C(=O)N[C@@H](CC(N)=O)C(=O)N1CCC[C@H]1C(=O)N[C@@H](C)C(=O)N2` [LsIA] (H-SGCCSNPACRVNNPNIC-NH2; disulfide 3-9, 4-17), the IC50 is reported as 17.4 ± 10.7 µM.
